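A five-concentration, 48-hour dose response in 96-well plates underlies each endpoint, interpolated linearly between surrounding concentrations. The concentration for 50% growth inhibition is given as GI50. TGI: total growth inhibition.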
Assays:
Assay in all cases: inhibition of tumour cell growth, NCI panel, 48 h
[1] = test system: BT-549 breast
[2] = test system: NCI-H226 lung
[3] = test system: OVCAR-3 ovarian
[4] = test system: OVCAR-5 ovarian
[5] = test system: RPMI-8226 leukemia
[6] = test system: SF-295 CNS
[7] = test system: SK-MEL-28 melanoma
[8] = test system: SNB-75 CNS
[9] = test system: SW-620 colon
[10] = test system: TK-10 renal

Structure (SMILES)	GI50 [1] [µM]	TGI [1] [µM]	GI50 [2] [µM]	TGI [2] [µM]	GI50 [3] [µM]	TGI [3] [µM]	GI50 [4] [µM]	TGI [4] [µM]	GI50 [5] [µM]	TGI [5] [µM]	GI50 [6] [µM]	TGI [6] [µM]	GI50 [7] [µM]	TGI [7] [µM]	GI50 [8] [µM]	TGI [8] [µM]	GI50 [9] [µM]	TGI [9] [µM]	GI50 [10] [µM]	TGI [10] [µM]
COc1cccc(-n2nc(C)c3c(N/N=C(\C)c4ccncc4)ncnc32)c1	> 21.9	> 25	> 8.39	> 25	> 25	> 25	> 25	> 25	> 25	> 25	> 25	> 25	> 25	> 25	> 9.22	> 25	> 25	> 25	10.2	> 25
O=C1c2cccc(NCCN=Cc3cc([N+](=O)[O-])ccc3O)c2C(=O)c2c(NCCN=Cc3cc([N+](=O)[O-])ccc3O)cccc21	36.9	> 100	3.34	> 100	4.79	72	31.6	> 100	1.03	4.35	2.08	52.1	14.9	> 100	2.16	19	1.49	> 100	28.5	> 100
Cc1ccc(C(CC(=O)c2ccccc2)C2C(=O)NC(=O)NC2=O)cc1 (configuration not stated)	> 100	> 100	> 100	> 100	> 100	> 100	> 100	> 100	> 100	> 100	> 100	> 100	> 100	> 100	> 100	> 100	> 100	> 100	> 100	> 100
CCN(Cc1ccc(F)cc1)c1ccc(CO)c(F)c1	12.5	39.4	0.171	0.364	5.38	18	1.26	4.13	7.13	33.7	5.7	31.7	32	> 100	10	> 86.4	7.09	> 100	0.625	3.07
CN[C@H](C#Cc1c(F)ccc2c1/C(=C/c1[nH]ccc1OC)C(=O)N2)CO	1.15	4.15	0.41	1.72	0.869	3.1	0.917	3.71	0.689	1.8	0.946	25	0.646	4.31	0.0777	3.88	0.476	2.71	0.247	2.25
CC1CC2OC(=O)C(C)C2CC2(C)C(OC3OC(CO)C(O)C(O)C3O)OCCC12 (configuration not stated)		29.4		> 100		> 100		> 100		> 100		> 100		> 100		> 100		> 100		> 100
COc1ccc(-c2nc(-c3ccccc3)c(-c3ccccc3)[nH]2)cc1OC1CCCC1	> 100	> 100	> 100	> 100	> 100	> 100	> 100	> 100	38.1	> 100	49.8	> 100	> 100	> 100	> 100	> 100	> 100	> 100		
Cc1ccc(-c2nc(C#N)c(S(=O)(=O)n3nc(C)cc3N)o2)cc1	3.85	14.8	15.6	41.4	2.08	3.73	12.4	27.5	3.07	10.1	15.8	30.5	12.7	25.6	13.7	27.1			1.97	3.6
CCCc1cc(=O)[nH]c(-n2nc(C)cc2C)n1	6.86	> 100	5.99	55.6	7.43	> 100	28	> 100	5.16	28.4	1.07	8.81	3.8	40.4	40.3	> 100	3.93	> 100		
O=C(Nc1cccc(-n2cc(-c3ccncc3)c(-c3cc(O)cc(Cl)c3)n2)c1)Nc1ccc(Cl)c(C(F)(F)F)c1	2.25	6.15	2.47	8.96	2.34	6.65	3.79	13.1	1.95	5.09	2.05	4.95	2.01	6.2	1.49	6.36	3.29	10.7		

Reference: PubChem BioAssay (NCI)
